Values of other authors as cited in US20100256082A1, “Metallo-hydrolase inhibitors using metal binding moietes in combination with targeting moieties” (Viamet Pharmaceuticals, Inc., priority 2006, published 2010).

Tests used:
RDP = details: read-out: 50% inhibitory concentration; reversible, competitive inhibitor of RDP
PDE3A = PDE3A (Homo sapiens, UniProt Q14432, T844A); details: T844 to Ala mutant versus PDE3A
Sequence of PDE3A (Q14432 whole entry T844A): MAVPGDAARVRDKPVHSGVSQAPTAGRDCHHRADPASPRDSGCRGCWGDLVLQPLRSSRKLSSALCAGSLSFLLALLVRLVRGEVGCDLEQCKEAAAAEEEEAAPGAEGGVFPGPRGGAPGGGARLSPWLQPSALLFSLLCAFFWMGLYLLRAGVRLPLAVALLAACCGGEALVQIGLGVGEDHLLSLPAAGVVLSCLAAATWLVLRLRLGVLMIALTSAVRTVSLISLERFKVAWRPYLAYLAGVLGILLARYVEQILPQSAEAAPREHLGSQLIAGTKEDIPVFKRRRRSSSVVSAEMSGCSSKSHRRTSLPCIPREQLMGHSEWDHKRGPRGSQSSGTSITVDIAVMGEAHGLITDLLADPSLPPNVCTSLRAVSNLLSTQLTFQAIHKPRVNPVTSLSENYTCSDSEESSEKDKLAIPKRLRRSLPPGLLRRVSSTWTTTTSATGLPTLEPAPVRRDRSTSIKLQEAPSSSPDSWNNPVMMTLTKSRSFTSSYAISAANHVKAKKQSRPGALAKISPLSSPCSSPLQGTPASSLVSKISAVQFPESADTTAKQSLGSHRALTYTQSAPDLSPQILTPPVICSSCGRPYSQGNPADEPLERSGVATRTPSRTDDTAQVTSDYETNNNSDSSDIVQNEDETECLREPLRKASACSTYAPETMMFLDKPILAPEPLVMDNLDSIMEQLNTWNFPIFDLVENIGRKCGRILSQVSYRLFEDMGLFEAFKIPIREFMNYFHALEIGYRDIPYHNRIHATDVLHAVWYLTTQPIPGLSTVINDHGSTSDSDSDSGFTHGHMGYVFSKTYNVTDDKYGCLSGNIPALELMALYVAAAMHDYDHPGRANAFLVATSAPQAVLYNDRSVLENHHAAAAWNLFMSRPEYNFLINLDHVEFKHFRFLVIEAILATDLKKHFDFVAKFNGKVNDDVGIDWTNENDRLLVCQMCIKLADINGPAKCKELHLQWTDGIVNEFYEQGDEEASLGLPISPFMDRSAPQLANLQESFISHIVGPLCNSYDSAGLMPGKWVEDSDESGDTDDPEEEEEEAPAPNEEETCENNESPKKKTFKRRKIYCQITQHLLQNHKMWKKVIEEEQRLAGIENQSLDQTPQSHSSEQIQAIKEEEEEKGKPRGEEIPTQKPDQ

| effect of mutation of T844 to Ala in PDE3A on the K (PDE3A) | SMILES | further results |
| --- | --- | --- |
| – | CC1(C)C[C@@H]1C(=O)N/C(=C\CCCCSC[C@H](N)C(=O)O)C(=O)O [Cilastatin] | IC50 (RDP): 50.1 mM |
| no effect | Nc1nc2c(ncn2[C@@H]2O[C@@H]3COP(=O)(O)O[C@H]3[C@H]2O)c(=O)[nH]1 [cGMP] | – |
| – | O=C1CCc2cc(OCCCCc3nnnn3C3CCCCC3)ccc2N1 [cilostazol] | increase in Ki on mutation of T844 to Ala in PDE3A (PDE3A): 25 fold |
| no effect | Cc1[nH]c(=O)c(C#N)cc1-c1ccncc1 [milrinone] | – |
